This note sets out measurements from ChEMBL document CHEMBL3596095, “Design, synthesis, and biological activity of phenyl-pyrazole derivatives as BCR-ABL kinase inhibitors” (Bioorg Med Chem, 2015).

One assay relates to K562. The assay is described as follows: cells. Type of assay: functional, cell-based. The conditions noted are these: Homo sapiens, K562, 48 h.
The target in a further assay is Bcr/Abl fusion protein (Homo sapiens, UniProt P00519). The assay is described as follows: Inhibition of BCR-ABL1 (unknown origin) assessed as ATP remaining by Kinase-Glo luminescent kinase assay. For orientation: Kinase-Glo measures the ATP left after a reaction by luminescence.
Sequence of Bcr/Abl fusion protein (P00519 whole entry, the tested form may be a part): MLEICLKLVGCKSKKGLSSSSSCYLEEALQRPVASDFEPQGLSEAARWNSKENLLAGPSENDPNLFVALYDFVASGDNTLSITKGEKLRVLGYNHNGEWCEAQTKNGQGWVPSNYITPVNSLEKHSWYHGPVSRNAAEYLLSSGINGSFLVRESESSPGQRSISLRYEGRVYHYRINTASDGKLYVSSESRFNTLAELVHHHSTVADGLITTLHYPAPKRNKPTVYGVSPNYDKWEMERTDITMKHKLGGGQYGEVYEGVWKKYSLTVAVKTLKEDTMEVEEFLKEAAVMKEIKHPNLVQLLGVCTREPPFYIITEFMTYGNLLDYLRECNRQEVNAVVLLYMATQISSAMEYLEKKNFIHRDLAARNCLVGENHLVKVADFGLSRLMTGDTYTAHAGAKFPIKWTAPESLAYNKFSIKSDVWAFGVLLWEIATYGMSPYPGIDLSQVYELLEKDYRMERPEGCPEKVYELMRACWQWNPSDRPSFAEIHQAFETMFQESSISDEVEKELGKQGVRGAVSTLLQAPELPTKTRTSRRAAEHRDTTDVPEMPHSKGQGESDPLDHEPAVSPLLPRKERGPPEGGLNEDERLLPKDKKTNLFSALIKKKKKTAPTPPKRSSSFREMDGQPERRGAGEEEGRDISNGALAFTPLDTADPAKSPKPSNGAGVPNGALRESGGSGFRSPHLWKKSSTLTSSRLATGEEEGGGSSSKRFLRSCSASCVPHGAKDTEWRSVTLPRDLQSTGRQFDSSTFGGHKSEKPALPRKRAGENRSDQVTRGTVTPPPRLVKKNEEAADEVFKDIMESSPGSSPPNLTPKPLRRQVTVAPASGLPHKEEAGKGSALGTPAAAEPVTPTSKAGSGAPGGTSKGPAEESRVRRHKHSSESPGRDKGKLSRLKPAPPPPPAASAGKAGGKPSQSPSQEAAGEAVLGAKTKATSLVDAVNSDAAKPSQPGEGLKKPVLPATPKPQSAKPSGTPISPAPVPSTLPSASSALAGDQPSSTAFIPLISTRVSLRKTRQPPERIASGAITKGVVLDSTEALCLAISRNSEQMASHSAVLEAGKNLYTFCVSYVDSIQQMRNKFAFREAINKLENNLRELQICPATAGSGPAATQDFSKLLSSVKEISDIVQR
Sequence of Bcr/Abl fusion protein (P11274 whole entry, further chain, the tested form may be a part): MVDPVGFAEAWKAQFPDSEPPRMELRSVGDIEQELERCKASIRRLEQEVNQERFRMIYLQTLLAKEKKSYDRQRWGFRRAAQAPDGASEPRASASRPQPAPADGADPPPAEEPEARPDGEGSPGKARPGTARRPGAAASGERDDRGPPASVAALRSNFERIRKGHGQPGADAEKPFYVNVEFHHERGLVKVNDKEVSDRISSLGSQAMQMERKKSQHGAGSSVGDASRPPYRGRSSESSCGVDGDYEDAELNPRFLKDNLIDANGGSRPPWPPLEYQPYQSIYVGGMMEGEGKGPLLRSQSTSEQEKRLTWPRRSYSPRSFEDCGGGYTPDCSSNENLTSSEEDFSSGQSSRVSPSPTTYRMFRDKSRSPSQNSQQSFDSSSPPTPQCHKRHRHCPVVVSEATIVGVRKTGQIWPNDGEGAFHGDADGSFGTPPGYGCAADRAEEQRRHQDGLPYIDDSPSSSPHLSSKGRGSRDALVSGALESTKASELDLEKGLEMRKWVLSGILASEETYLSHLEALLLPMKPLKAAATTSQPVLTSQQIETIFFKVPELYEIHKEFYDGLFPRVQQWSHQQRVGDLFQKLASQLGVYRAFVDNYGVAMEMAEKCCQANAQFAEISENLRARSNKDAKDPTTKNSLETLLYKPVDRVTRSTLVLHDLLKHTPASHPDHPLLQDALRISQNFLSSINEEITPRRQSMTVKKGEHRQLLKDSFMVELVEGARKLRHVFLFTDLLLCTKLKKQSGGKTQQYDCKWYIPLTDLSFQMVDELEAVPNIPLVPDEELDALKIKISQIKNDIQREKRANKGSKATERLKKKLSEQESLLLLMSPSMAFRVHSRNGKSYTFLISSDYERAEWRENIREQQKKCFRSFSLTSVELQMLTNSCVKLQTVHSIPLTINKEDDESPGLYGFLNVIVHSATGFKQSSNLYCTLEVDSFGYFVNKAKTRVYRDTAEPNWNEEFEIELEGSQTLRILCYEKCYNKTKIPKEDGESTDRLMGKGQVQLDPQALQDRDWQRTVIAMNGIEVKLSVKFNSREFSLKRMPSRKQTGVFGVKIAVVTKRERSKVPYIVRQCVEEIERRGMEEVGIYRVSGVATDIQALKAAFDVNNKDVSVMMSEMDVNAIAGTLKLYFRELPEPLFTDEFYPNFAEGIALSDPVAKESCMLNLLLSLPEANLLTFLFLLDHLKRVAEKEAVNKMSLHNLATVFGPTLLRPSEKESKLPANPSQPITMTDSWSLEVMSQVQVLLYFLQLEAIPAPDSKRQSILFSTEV

Description for K562: Antitumor activity against human K562 cells assessed as inhibition of cell growth after 48 hrs by MTT assay

As usually defined, the IC50 is the concentration that inhibits the measured activity by half. With `Cc1ccc(NC(=O)c2cccc(C(F)(F)F)c2)cc1-n1cc(-c2cccnc2)cn1`, the concentration for half-maximal inhibition (IC50) was found to be 270 nM in the assay on K562 and 14.2 nM at Bcr/Abl fusion protein.
For `Cc1ccc(NC(=O)c2cccc(Cl)c2)cc1-n1cc(-c2cccnc2)cn1` the same measures were 1320 nM and 15.9 nM.
For `Cc1ccc(NC(=O)c2ccc(F)cc2)cc1-n1cc(-c2cccnc2)cn1` the same measures were 12500 nM and 214 nM.
For the molecule `CCc1ccc(C(=O)Nc2ccc(C)c(-n3cc(-c4cccnc4)cn3)c2)cc1`, the half-maximal inhibitory concentration (IC50) turned out to be 6520 nM with K562 and 41 nM at Bcr/Abl fusion protein.
For `Cc1ccc(NC(=O)c2ccc(C(F)(F)F)cc2)cc1-n1cc(-c2cccnc2)cn1` the same measures were 760 nM and 43.3 nM.
As to `COc1ccc(C(=O)Nc2ccc(C)c(-n3cc(-c4cccnc4)cn3)c2)cc1`, the IC50 in the assay with K562 came to 18300 nM; at Bcr/Abl fusion protein it was 46.2 nM.
Consider `Cc1ccc(NC(=O)c2ccc(CN3CCN(C)CC3)cc2)cc1-n1cc(-c2cccnc2)cn1`, for which the half-maximal inhibitory concentration (IC50) in the assay on K562 came to 1670 nM; at Bcr/Abl fusion protein it was 50.6 nM.
For `Cc1ccc(NC(=O)c2ccc(CN3CCOCC3)cc2)cc1-n1cc(-c2cccnc2)cn1` the same measures were 21500 nM and 178 nM.
For the molecule `Cc1ccc(NC(=O)c2ccc(Cn3ccnc3)cc2)cc1-n1cc(-c2cccnc2)cn1`, the IC50 was determined as 136000 nM in the assay on K562 and 326 nM at Bcr/Abl fusion protein.
For `CCN(CC)Cc1ccc(C(=O)Nc2ccc(C)c(-n3cc(-c4cccnc4)cn3)c2)cc1`, the IC50 in the assay on K562 was 3260 nM; at Bcr/Abl fusion protein, 129 nM.
In the same order, the values of `Cc1ccc(NC(=O)c2ccc(CN3CCCN(C)CC3)cc2)cc1-n1cc(-c2cccnc2)cn1` are 8650 nM and 26.6 nM.
With `Cc1ccc(NC(=O)c2ccc(CN3CCCC3)cc2)cc1-n1cc(-c2cccnc2)cn1`, the IC50 in the assay on K562 was found to be 2740 nM; at Bcr/Abl fusion protein, 117 nM.
For `CCN1CCN(Cc2ccc(C(=O)Nc3ccc(C)c(-n4cc(-c5cccnc5)cn4)c3)cc2)CC1` the same measures were 2330 nM and 16.9 nM.
On to `Cc1ccc(NC(=O)c2ccc(CN3CCN(CCO)CC3)cc2)cc1-n1cc(-c2cccnc2)cn1`, for which the figures for the IC50 in the assay with K562 and on Bcr/Abl fusion protein were 98300 nM and 175 nM, respectively.
